Measured values taken from patent publication US20200368247A1, “CENICRIVIROC FOR THE TREATMENT OF FIBROSIS” (Tobira Therapeutics, Inc., priority 2014, published 2020).

Tests used:
Assay type in all cases: in vivo, human
[1] = Study 202 post-hoc APRI and FIB-4 fibrosis index scores
Procedure: APRI and FIB-4 scores were calculated. Change in score category from baseline (BL) to Weeks 24 and 48 was assessed in patients with non-missing data. Correlations between changes from BL in APRI and FIB-4 scores, and MCP-1 (CCR2 ligand) and sCD14 (inflammatory biomarker) levels were evaluated.

[2] = Study 202 fasting metabolic laboratory parameters
From the text: All abnormalities in total cholesterol, LDL cholesterol, triglycerides, or glucose were Grade 1 or Grade 2.
Mean baseline values and changes from baseline in HbA1c, HOMA-IR, fasting LDL, fasting HDL, fasting total cholesterol, fasting total cholesterol/HDL ratio, and fasting triglycerides are shown in Table 36.

[3] = Study 202 ECG abnormalities; details: All CVC (N = 115); EFV (N = 28), through Week 48
[4] = All CVC (N = 115), EFV (N = 28), through Week 48

Compound: O=C1Nc2ccc(Cl)cc2[C@@](C#CC2CC2)(C(F)(F)F)O1 [EFV, efavirenz, reference compound]
- APRI 0.5-1.5, patients ([1]; Baseline): 4%
- APRI <0.5, patients ([1]; Baseline): 96%
- FIB-4 <1.45, patients ([1]; Baseline): 100%
- subjects with decrease in FIB-4 score by one category ([1]; EFV arm, Weeks 24 and 48): no subject
- APRI <0.5, patients ([1]; Week 24): 100%
- APRI decreased 1 category from baseline, patients ([1]; Week 24): 5%
- FIB-4 <1.45, patients ([1]; Week 24): 100%
- APRI <0.5, patients ([1]; Week 48): 100%
- APRI decreased 1 category from baseline, patients ([1]; Week 48): 6%
- FIB-4 1.45-3.25, patients ([1]; Week 48): 6%
- FIB-4 <1.45, patients ([1]; Week 48): 94%
- Any fasting laboratory abnormality, worst Grade 1 [2, 4]: 6 (21%) n (%)
- Any fasting laboratory abnormality, worst Grade 2 [2, 4]: 3 (11%) n (%)
- Any fasting laboratory abnormality, worst Grade 3 [2, 4]: 0 n (%)
- Any fasting laboratory abnormality, worst Grade 4 [2, 4]: 0 n (%)
- Any graded (Grade 1-4) fasting laboratory abnormality [2, 4]: 9 (32%) n (%)
- Fasting LDL cholesterol abnormality, Grade 1 [2, 4]: 3 (11%) n (%)
- Fasting LDL cholesterol abnormality, Grade 2 [2, 4]: 3 (11%) n (%)
- Fasting LDL cholesterol abnormality, Grade 3 [2, 4]: 0 n (%)
- Fasting LDL cholesterol abnormality, Grade 4 [2, 4]: 0 n (%)
- Fasting LDL cholesterol abnormality, any grade [2, 4]: 6 (21%) n (%)
- Fasting glucose (serum, high) abnormality, Grade 1 [2, 4]: 2 (7%) n (%)
- Fasting glucose (serum, high) abnormality, Grade 2 [2, 4]: 0 n (%)
- Fasting glucose (serum, high) abnormality, Grade 3 [2, 4]: 0 n (%)
- Fasting glucose (serum, high) abnormality, Grade 4 [2, 4]: 0 n (%)
- Fasting glucose (serum, high) abnormality, any grade [2, 4]: 2 (7%) n (%)
- Fasting total cholesterol abnormality, Grade 1 [2, 4]: 6 (21%) n (%)
- Fasting total cholesterol abnormality, Grade 2 [2, 4]: 3 (11%) n (%)
- Fasting total cholesterol abnormality, Grade 3 [2, 4]: 0 n (%)
- Fasting total cholesterol abnormality, Grade 4 [2, 4]: 0 n (%)
- Fasting total cholesterol abnormality, any grade [2, 4]: 9 (32%) n (%)
- Fasting triglycerides abnormality, Grade 1 [2, 4]: 0 n (%)
- Fasting triglycerides abnormality, Grade 2 [2, 4]: 0 n (%)
- Fasting triglycerides abnormality, Grade 3 [2, 4]: 0 n (%)
- Fasting triglycerides abnormality, Grade 4 [2, 4]: 0 n (%)
- Fasting triglycerides abnormality, any grade [2, 4]: 0 n (%)
- Fasting HDL, mean change from baseline ([2]; All CVC, EFV, Week 4): 5.90 mg/dL
- Fasting total cholesterol, mean change from baseline ([2]; All CVC, EFV, Week 4): 19 mg/dL
- Fasting total cholesterol/HDL ratio, mean change from baseline ([2]; All CVC, EFV, Week 4): −0.07
- Fasting triglycerides, mean change from baseline ([2]; All CVC, EFV, Week 4): 23 mg/dL
- HOMA-IR, mean change from baseline ([2]; All CVC, EFV, Week 4): 0.30
- HbA1c, mean change from baseline ([2]; All CVC, EFV, Week 4): −0.01 % Hb
- Fasting total cholesterol, mean change from baseline ([2]; All CVC, EFV, Week 12): 18 mg/dL
- Fasting total cholesterol/HDL ratio, mean change from baseline ([2]; All CVC, EFV, Week 12): −0.41
- Fasting triglycerides, mean change from baseline ([2]; All CVC, EFV, Week 12): 3 mg/dL
- HOMA-IR, mean change from baseline ([2]; All CVC, EFV, Week 12): 0.06
- HbA1c, mean change from baseline ([2]; All CVC, EFV, Week 12): −0.07 % Hb
- Fasting total cholesterol, mean change from baseline ([2]; All CVC, EFV, Week 24): 24 mg/dL
- Fasting total cholesterol/HDL ratio, mean change from baseline ([2]; All CVC, EFV, Week 24): −0.47
- Fasting triglycerides, mean change from baseline ([2]; All CVC, EFV, Week 24): 10 mg/dL
- HbA1c, mean change from baseline ([2]; All CVC, EFV, Week 24): −0.01 % Hb
- Fasting total cholesterol, mean change from baseline ([2]; All CVC, EFV, Week 48): 26 mg/dL
- HOMA-IR, mean change from baseline ([2]; All CVC, EFV, Week 48): −0.12
- HbA1c, mean change from baseline ([2]; All CVC, EFV, Week 48): 0.08 % Hb
- change in LDL cholesterol and HDL cholesterol ([2]; EFV, through Week 48): increases
- HR Abnormally high (120 bpm ≤ abnormally high) [3]: 0 n (%)
- HR Abnormally low (≤ 50 bpm) [3]: 0 n (%)
- PR Abnormally high (210 ms ≤ abnormally high) [3]: 1 (4%) n (%)
- QRS Abnormally high (120 ms ≤ abnormally high) [3]: 0 n (%)
- QRS Abnormally low (≤ 50 ms) [3]: 0 n (%)
- QTcB interval Borderline (450 ms ≤ borderline ≤ 480 ms) [3]: 3 (11%) n (%)
- QTcB interval Increase by >30-60 ms [3]: 4 (14%) n (%)
- QTcB interval Increase by >60 ms [3]: 0 n (%)
- QTcB interval Pathologically prolonged (> 500 ms) [3]: 0 n (%)
- QTcB interval Prolonged (480 ms < prolonged ≤ 500 ms) [3]: 0 n (%)
- QTcF interval Borderline (450 ms ≤ borderline ≤ 480 ms) [3]: 0 n (%)
- QTcF interval Increase by >30-60 ms [3]: 4 (14%) n (%)
- QTcF interval Increase by >60 ms [3]: 0 n (%)
- QTcF interval Pathologically prolonged (> 500 ms) [3]: 0 n (%)
- QTcF interval Prolonged (480 ms < prolonged ≤ 500 ms) [3]: 0 n (%)
